Source: patent US20010039275A1, “Use of 2,4-diaminothiazole derivatives” (priority 2000, published 2001)

| SMILES | melting point |
| --- | --- |
| Nc1nc(Nc2ccccc2)sc1C(=O)c1ccc(C(F)(F)F)cc1 [Example 6, (4-Amino-2-phenylaminothiazol-5-yl)-(4-trifluoromethylphenyl)methanone] | 201 to 205 °C |
| CCN(CC)c1ccc(C(=O)c2sc(Nc3ccccc3)nc2N)cc1 [Example 7, (4-Amino-2-phenylaminothiazol-5-yl)-(4-diethylaminophenyl)methanone] | 214 to 216 °C |
| Nc1nc(Nc2ccccc2)sc1C(=O)c1ccc(OC(F)(F)F)cc1 [Example 8, (4-Amino-2-phenylaminothiazol-5-yl)-(4-trifluoromethoxyphenyl)methanone] | 170 to 173 °C |
| CCC(=O)c1sc(Nc2ccccc2)nc1N [Example 11, 1-(4-Amino-2-phenylaminothiazol-5-yl)propan-1-one] | 136 to 139 °C |
| Nc1nc(Nc2ccccc2)sc1C(=O)c1ccc(F)c(F)c1 [Example 12, (4-Amino-2-phenylaminothiazol-5-yl)-(3,4-difluorophenyl)methanone] | 178 to 180 °C |
| Nc1nc(Nc2ccccc2)sc1C(=O)c1cccc(F)c1 [Example 13, (4-Amino-2-phenylaminothiazol-5-yl)-(3-fluorophenyl)methanone] | 161 to 164 °C |
| Nc1nc(Nc2ccccc2)sc1C(=O)c1ccc2ccccc2c1 [Example 14, (4-Amino-2-phenylaminothiazol-5-yl)naphthalen-2-ylmethanone] | 227 to 229 °C |
| Nc1nc(Nc2ccccc2)sc1C(=O)c1ccc(-c2ccccc2)cc1 [Example 15, (4-Amino-2-phenylaminothiazol-5-yl)biphenyl-4-ylmethanone] | 224 to 225 °C |
| Nc1nc(Nc2ccccc2)sc1C(=O)c1cccc(OCc2ccccc2)c1 [Example 16, (4-Amino-2-phenylaminothiazol-5-yl)-(3-benzyloxyphenyl)methanone] | 121 to 124 °C |
| Nc1nc(Nc2ccc(Br)cc2)sc1C(=O)C1CC1 [Example 17, [4-Amino-2-(4-bromophenylamino)thiazol-5-yl]cyclopropylmethanone] | 204 to 206 °C |
| Nc1nc(Nc2ccccc2)sc1C(=O)c1ccc(Cl)c(Cl)c1 [Example 18, (4-Amino-2-phenylaminothiazol-5-yl)-(3,4-dichlorophenyl)methanone] | 195 to 198 °C |
| Cc1c(C(=O)c2sc(Nc3ccccc3)nc2N)sc2ccccc12 [Example 19, (4-Amino-2-phenylaminothiazol-5-yl)-(3-methylbenzo[b]thiophen-2-yl) methanone] | 165 to 167 °C |
| Nc1nc(Nc2ccccc2)sc1-c1ccc([N+](=O)[O-])cc1 [Example 20, 4-Amino-2-phenylamino-5-(4-nitrophenyl)thiazole] | 217 to 219 °C |
| Nc1nc(Nc2ccccc2)sc1C(=O)c1ccc(Cl)s1 [Example 21, (4-Amino-2-phenylaminothiazol-5-yl)-(5-chlorothiophen-2-yl)methanone] | 167 to 169 °C |
| COc1ccccc1C(=O)c1sc(Nc2ccccc2)nc1N [Example 22, (4-Amino-2-phenylaminothiazol-5-yl)-(2-methoxyphenvl)methanone] | 196 to 200 °C |
| COc1cccc(C(=O)c2sc(Nc3ccccc3)nc2N)c1 [Example 23, (4-Amino-2-phenylaminothiazol-5-yl)-(3-methoxyphenyl)methanone] | 174 to 175 °C |

| SMILES | melting point |
| --- | --- |
| Nc1nc(Nc2ccccc2)sc1C(=O)c1ccccc1[N+](=O)[O-] [Example 25, (4-Amino-2-phenylaminothiazol-5-yl)-(2-nitrophenyl)methanone] | 117 to 119 °C |
| Nc1nc(Nc2ccccc2)sc1C(=O)c1ccc([N+](=O)[O-])cc1 [Example 27, (4-Amino-2-phenylaminothiazol-5-yl)-(4-nitrophenyl)methanone] | 206 to 208 °C |
| Cc1cc(C(=O)c2sc(Nc3ccccc3)nc2N)ccc1Cl [Example 28, (4-amino-2-phenylaminothiazol-5-yl)-(4-chloro-3-methylphenyl)methanone] | 173 to 175 °C |
| Nc1nc(Nc2ccccc2)sc1C(=O)c1ccc(O)c(O)c1 [Example 29, (4-Amino-2-phenylaminothiazol-5-yl)-(3,4-dihydroxyphenyl)methanone] | 222 to 224 °C |
| COc1ccc(C(=O)c2sc(Nc3ccccc3)nc2N)c(OC)c1 [Example 30, (4-Amino-2-phenylaminothiazol-5-yl)-(2,4-dimethoxyphenyl)methanone] | 196 to 198 °C |
| CCCNc1nc(N)c(C(=O)c2cccnc2)s1 [Example 32, (4-Amino-2-propylaminothiazol-5-yl)pyridin-3-yl-methanone] | 205 to 206 °C |
| Cc1cc(C)c(C(=O)c2sc(Nc3ccccc3)nc2N)c(C)c1 [Example 35, (4-Amino-2-phenylaminothiazol-5-yl)-(2,4,6-trimethylphenyl)methanone] | 198 to 200 °C |
| COc1cccc(OC)c1C(=O)c1sc(Nc2ccccc2)nc1N [Example 37, (4-Amino-2-phenylaminothiazol-5-yl)-(2,6-dimethoxyphenyl)methanone] | 224 to 226 °C |
| COC(=O)c1sc(Nc2ccccc2)nc1N [Example 38, 4-Amino-2-phenylaminothiazole-5-carboxylic acid methyl ester] | 173 to 174 °C |
| Nc1nc(Nc2ccccc2)sc1C(=O)c1csc2ccccc12 [Example 40, (4-Amino-2-phenylaminothiazol-5-yl)-benzofblthiophen-3-yl-methanone] | 211 to 212 °C |
| Nc1nc(Nc2ccccc2)sc1C(=O)c1c(Cl)cccc1Cl [Example 42, (4-Amino-2-phenylaminothiazol-5-yl)-(2,6-dichlorophenyl)methanone] | 245 to 246 °C |
| Nc1nc(Nc2ccccc2)sc1C(=O)Nc1ccccc1 [Example 45, 4-Amino-2-phenylaminothiazole-5-carboxylic acid phenylamide] | 75 °C |
| CON(C)C(=O)c1sc(Nc2ccccc2)nc1N [Example 46, 4-Amino-2-phenyiaminothiazole-5-carboxylic acid methoxymethylamide] | 152 to 153 °C |
| Nc1nc(Nc2ccccc2)sc1C(=O)N1CCOCC1 [Example 49, (4-Amino-2-phenylaminothiazol-5-yl)morpholin-4-ylmethanone] | 212 to 213 °C |
| Nc1nc(Nc2ccc(Cl)cc2)sc1C(=O)c1cccc(OCc2ccccc2)c1 [Example 54, [4-Amino-2-(4-chlorophenylamino)thiazol-5-yl]-(3-benzyloxyphenyl)methanone] | 173 to 174 °C |
